Experimental data taken from ChEMBL document CHEMBL4052645, “Discovery of potent and efficacious pyrrolopyridazines as dual JAK1/3 inhibitors” (Bioorg Med Chem Lett, 2017).

Key:
[1] = molecular target: Ribosomal protein S6 kinase alpha-4 (Homo sapiens) (UniProt O75676); test: Inhibition of wild-type human partial length C-terminal MSK2 kinase domain 2 (M375 to T705 residues) expressed in mammalian expression system assessed as residual activity at 50 nM by Kinomescan method relative to control
[2] = molecular target: 5'-AMP-activated protein kinase catalytic subunit alpha-1 (Homo sapiens) (UniProt Q13131); test: Inhibition of wild-type human partial length AMPK alpha1 (M1 to E306 residues) expressed in bacterial expression system assessed as residual activity at 50 nM by Kinomescan method relative to control
[3] = molecular target: Cyclin-dependent kinase 17 (Homo sapiens) (UniProt Q00537); test: Inhibition of recombinant human full length PCTAIRE2 (M1 to F523 residues) assessed as residual activity at 50 nM by Kinomescan method relative to control
[4] = molecular target: Mitogen-activated protein kinase kinase kinase 20 (Homo sapiens) (UniProt Q9NYL2); test: Inhibition of wild-type human partial length ZAK (M1 to L331 residues) expressed in bacterial expression system assessed as residual activity at 50 nM by Kinomescan method relative to control
[5] = molecular target: Mitogen-activated protein kinase kinase kinase kinase 5 (Homo sapiens) (UniProt Q9Y4K4); test: Inhibition of recombinant human KHS1 (M1 to P297 residues) expressed in bacterial expression system assessed as residual activity at 50 nM by Kinomescan method relative to control
[6] = molecular target: Dual specificity mitogen-activated protein kinase kinase 5 (Homo sapiens) (UniProt Q13163); test: Inhibition of human MAP2K5 (L98 to P448 residues) expressed in mammalian expression system assessed as residual activity at 50 nM by KINOMEscan assay relative to control
[7] = molecular target: Ephrin type-B receptor 4 (Homo sapiens) (UniProt P54760); test: Inhibition of wild-type human partial length EPHB4 (H585 to G892 residues) expressed in bacterial expression system assessed as residual activity at 50 nM by Kinomescan method relative to control
[8] = molecular target: Mitogen-activated protein kinase 14 (Homo sapiens) (UniProt Q16539); test: Inhibition of wild-type human full length p38-alpha (M1 to S360 residues) expressed in bacterial expression system assessed as residual activity at 50 nM by Kinomescan method relative to control
[9] = molecular target: Tyrosine-protein kinase Fyn (Homo sapiens) (UniProt P06241); test: Inhibition of wild-type human partial length FYN (T243 to L534 residues) expressed in bacterial expression system assessed as residual activity at 50 nM by Kinomescan method relative to control
Chain of Tyrosine-protein kinase Fyn (Homo sapiens) (P06241 2-537 limits assumed): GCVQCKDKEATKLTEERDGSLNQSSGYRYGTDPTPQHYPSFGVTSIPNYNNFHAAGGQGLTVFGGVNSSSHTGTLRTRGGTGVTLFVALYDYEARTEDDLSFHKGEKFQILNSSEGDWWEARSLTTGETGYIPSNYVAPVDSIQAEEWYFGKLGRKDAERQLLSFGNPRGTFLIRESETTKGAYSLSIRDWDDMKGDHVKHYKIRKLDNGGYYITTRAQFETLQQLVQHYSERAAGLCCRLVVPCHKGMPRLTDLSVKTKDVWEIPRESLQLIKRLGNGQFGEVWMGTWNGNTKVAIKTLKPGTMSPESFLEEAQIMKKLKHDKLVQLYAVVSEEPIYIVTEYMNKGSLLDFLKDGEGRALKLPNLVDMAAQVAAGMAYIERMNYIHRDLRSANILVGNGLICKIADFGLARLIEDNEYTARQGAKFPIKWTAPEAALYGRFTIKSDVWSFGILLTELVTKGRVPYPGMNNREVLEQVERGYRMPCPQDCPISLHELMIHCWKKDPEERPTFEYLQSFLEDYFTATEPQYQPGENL

[10] = molecular target: Cyclin-dependent kinase 9 (Homo sapiens) (UniProt P50750); test: Inhibition of wild-type human full length CDK9 (M1 to F372 residues) expressed in bacterial expression system assessed as residual activity at 50 nM by Kinomescan method relative to control
[11] = molecular target: RAC-gamma serine/threonine-protein kinase (Homo sapiens) (UniProt Q9Y243); test: Inhibition of wild-type human partial length AKT3 expressed in bacterial expression system assessed as residual activity at 50 nM by Kinomescan method relative to control
[12] = molecular target: Bone morphogenetic protein receptor type-1B (Homo sapiens) (UniProt O00238); test: Inhibition of wild-type human partial length BMPR1B (D178 to L502 residues) expressed in mammalian expression system assessed as residual activity at 50 nM by Kinomescan method relative to control
[13] = molecular target: Serine/threonine-protein kinase SIK3 (Homo sapiens) (UniProt Q9Y2K2); test: Inhibition of wild-type human partial length QSK (A90 to L395 residues) expressed in mammalian expression system assessed as residual activity at 50 nM by Kinomescan method relative to control
[14] = molecular target: Protein kinase C eta type (Homo sapiens) (UniProt P24723); test: Inhibition of wild-type human partial length PKCH (S324 to P683 residues) expressed in bacterial expression system assessed as residual activity at 50 nM by Kinomescan method relative to control
[15] = molecular target: Serine/threonine-protein kinase B-raf (Homo sapiens) (UniProt P15056); test: Inhibition of wild-type human partial length BRAF (S429 to E741 residues) expressed in mammalian expression system assessed as residual activity at 50 nM by Kinomescan method relative to control
[16] = molecular target: Phosphatidylinositol 4,5-bisphosphate 3-kinase catalytic subunit alpha isoform (Homo sapiens) (UniProt P42336); test: Inhibition of wild-type human partial length PI3KCA (R108 to N1068 residues) expressed in mammalian expression system assessed as residual activity at 50 nM by Kinomescan method relative to control
Chain of Phosphatidylinositol 4,5-bisphosphate 3-kinase catalytic subunit alpha isoform (Homo sapiens) (P42336 whole entry, the tested form may be a part, canonical isoform): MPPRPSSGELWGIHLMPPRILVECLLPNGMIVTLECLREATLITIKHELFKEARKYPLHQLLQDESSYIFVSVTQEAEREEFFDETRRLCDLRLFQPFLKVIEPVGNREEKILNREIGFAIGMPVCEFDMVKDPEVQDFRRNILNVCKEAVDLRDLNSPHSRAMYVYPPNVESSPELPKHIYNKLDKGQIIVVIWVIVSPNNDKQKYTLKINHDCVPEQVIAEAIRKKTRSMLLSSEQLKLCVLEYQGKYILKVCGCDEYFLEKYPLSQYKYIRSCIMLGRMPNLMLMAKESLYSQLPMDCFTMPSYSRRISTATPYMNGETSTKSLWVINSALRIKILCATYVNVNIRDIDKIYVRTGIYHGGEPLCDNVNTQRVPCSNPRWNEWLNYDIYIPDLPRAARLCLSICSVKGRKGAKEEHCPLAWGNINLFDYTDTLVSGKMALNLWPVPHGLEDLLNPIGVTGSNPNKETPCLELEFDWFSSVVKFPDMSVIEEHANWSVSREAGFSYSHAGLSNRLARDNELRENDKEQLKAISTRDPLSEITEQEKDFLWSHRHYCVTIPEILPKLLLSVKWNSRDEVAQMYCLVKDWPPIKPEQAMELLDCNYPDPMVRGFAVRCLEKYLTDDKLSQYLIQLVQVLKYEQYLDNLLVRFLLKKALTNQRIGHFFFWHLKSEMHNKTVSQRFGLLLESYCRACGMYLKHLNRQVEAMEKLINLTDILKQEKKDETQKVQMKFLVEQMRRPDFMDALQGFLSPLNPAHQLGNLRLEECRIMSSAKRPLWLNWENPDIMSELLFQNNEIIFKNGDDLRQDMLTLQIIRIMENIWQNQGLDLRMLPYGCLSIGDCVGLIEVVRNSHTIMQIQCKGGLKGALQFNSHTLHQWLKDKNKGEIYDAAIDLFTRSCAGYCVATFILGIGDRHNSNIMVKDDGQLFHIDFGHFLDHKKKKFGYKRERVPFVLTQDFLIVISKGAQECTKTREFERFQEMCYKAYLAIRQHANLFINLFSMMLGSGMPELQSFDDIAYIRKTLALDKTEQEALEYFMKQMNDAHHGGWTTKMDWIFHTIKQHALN

[17] = molecular target: Microtubule-associated serine/threonine-protein kinase 1 (Homo sapiens) (UniProt Q9Y2H9); test: Inhibition of wild-type human partial length MAST1 (S346 to V730 residues) expressed in mammalian expression system assessed as residual activity at 50 nM by Kinomescan method relative to control
[18] = molecular target: Serine/threonine-protein kinase pim-2 (Homo sapiens) (UniProt Q9P1W9); test: Inhibition of wild-type human partial length PIM2 (M1 to E291 residues) expressed in bacterial expression system assessed as residual activity at 50 nM by Kinomescan method relative to control
[19] = molecular target: MAP kinase-interacting serine/threonine-protein kinase 1 (Homo sapiens) (UniProt Q9BUB5); test: Inhibition of wild-type human full length MNK1 (M1 to L424 residues) expressed in mammalian expression system assessed as residual activity at 50 nM by Kinomescan method relative to control
[20] = molecular target: Vascular endothelial growth factor receptor 3 (Homo sapiens) (UniProt P35916); test: Inhibition of wild-type human partial length FLT4 (E821 to E1196 residues) expressed in bacterial expression system assessed as residual activity at 50 nM by Kinomescan method relative to control
Chain of Vascular endothelial growth factor receptor 3 (Homo sapiens) (P35916 whole entry, the tested form may be a part): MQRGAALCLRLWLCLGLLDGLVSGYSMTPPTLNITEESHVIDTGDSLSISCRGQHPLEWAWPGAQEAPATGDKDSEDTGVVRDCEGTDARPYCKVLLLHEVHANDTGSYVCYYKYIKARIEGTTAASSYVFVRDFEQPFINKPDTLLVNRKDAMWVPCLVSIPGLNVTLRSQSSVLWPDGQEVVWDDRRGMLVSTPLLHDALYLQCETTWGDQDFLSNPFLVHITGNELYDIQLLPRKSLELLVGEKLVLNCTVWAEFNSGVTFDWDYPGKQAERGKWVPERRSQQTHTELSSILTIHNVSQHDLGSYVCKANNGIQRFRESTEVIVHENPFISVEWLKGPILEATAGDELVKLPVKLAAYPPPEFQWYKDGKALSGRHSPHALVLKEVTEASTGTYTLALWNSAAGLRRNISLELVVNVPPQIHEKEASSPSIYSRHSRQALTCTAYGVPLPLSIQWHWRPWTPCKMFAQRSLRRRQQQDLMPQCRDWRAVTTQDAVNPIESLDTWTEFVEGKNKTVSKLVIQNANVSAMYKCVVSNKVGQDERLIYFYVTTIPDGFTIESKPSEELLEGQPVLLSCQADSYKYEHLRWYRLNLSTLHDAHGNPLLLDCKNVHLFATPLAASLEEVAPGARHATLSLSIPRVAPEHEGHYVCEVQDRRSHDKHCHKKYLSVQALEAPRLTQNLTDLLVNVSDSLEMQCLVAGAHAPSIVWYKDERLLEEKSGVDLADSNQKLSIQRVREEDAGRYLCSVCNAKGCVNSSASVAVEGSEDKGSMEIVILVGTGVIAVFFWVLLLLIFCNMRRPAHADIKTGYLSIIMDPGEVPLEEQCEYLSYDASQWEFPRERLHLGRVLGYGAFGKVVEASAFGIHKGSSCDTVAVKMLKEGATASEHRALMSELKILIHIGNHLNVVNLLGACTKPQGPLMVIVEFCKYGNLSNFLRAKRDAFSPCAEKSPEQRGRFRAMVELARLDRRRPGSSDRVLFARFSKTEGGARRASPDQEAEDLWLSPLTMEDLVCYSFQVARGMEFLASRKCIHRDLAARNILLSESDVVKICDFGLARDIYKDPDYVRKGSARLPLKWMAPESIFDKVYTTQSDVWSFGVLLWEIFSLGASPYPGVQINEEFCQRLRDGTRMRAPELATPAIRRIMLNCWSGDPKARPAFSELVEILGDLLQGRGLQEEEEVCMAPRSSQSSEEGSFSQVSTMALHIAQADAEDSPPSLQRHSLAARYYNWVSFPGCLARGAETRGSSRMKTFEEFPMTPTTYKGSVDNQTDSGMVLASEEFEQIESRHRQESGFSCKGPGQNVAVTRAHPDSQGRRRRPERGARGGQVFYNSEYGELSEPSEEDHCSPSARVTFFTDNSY

[21] = molecular target: Cyclin-dependent kinase 16 (Homo sapiens) (UniProt Q00536); test: Inhibition of wild-type human partial length PCTAIRE1 (G160 to A474 residues) expressed in mammalian expression system assessed as residual activity at 50 nM by Kinomescan method relative to control
[22] = molecular target: Interferon-induced, double-stranded RNA-activated protein kinase (Homo sapiens) (UniProt P19525); test: Inhibition of wild-type human partial length PKR (F247 to C551 residues) expressed in bacterial expression system assessed as residual activity at 50 nM by Kinomescan method relative to control
Chain of Interferon-induced, double-stranded RNA-activated protein kinase (Homo sapiens) (P19525 whole entry, the tested form may be a part): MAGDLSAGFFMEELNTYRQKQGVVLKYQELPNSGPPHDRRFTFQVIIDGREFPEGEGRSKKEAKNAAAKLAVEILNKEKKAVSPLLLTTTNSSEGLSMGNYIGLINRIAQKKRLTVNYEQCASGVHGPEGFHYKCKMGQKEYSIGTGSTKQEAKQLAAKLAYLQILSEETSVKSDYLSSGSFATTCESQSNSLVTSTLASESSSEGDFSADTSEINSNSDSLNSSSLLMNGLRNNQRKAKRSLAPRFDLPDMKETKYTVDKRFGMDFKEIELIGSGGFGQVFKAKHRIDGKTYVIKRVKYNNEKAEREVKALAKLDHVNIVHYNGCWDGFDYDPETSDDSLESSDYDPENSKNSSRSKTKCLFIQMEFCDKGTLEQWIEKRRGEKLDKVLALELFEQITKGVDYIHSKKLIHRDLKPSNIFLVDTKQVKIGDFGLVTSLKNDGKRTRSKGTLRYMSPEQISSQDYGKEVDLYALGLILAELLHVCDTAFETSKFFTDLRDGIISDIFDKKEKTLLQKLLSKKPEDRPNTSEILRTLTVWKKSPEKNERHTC

[23] = molecular target: Ephrin type-B receptor 1 (Homo sapiens) (UniProt P54762); test: Inhibition of wild-type human partial length EPHB1 (P589 to T911 residues) expressed in bacterial expression system assessed as residual activity at 50 nM by Kinomescan method relative to control
[24] = molecular target: AP2-associated protein kinase 1 (Homo sapiens) (UniProt Q2M2I8); test: Inhibition of human wild-type AAK1 (G25 to L333 residues) expressed in bacterial expression system assessed as residual activity at 50 nM by Kinomescan method relative to control
[25] = molecular target: Serine/threonine-protein kinase MRCK gamma (Homo sapiens) (UniProt Q6DT37); test: Inhibition of wild-type human partial length DMPK2 (S46 to S408 residues) expressed in bacterial expression system assessed as residual activity at 50 nM by Kinomescan method relative to control
Chain of Serine/threonine-protein kinase MRCK gamma (Homo sapiens) (Q6DT37 whole entry, the tested form may be a part): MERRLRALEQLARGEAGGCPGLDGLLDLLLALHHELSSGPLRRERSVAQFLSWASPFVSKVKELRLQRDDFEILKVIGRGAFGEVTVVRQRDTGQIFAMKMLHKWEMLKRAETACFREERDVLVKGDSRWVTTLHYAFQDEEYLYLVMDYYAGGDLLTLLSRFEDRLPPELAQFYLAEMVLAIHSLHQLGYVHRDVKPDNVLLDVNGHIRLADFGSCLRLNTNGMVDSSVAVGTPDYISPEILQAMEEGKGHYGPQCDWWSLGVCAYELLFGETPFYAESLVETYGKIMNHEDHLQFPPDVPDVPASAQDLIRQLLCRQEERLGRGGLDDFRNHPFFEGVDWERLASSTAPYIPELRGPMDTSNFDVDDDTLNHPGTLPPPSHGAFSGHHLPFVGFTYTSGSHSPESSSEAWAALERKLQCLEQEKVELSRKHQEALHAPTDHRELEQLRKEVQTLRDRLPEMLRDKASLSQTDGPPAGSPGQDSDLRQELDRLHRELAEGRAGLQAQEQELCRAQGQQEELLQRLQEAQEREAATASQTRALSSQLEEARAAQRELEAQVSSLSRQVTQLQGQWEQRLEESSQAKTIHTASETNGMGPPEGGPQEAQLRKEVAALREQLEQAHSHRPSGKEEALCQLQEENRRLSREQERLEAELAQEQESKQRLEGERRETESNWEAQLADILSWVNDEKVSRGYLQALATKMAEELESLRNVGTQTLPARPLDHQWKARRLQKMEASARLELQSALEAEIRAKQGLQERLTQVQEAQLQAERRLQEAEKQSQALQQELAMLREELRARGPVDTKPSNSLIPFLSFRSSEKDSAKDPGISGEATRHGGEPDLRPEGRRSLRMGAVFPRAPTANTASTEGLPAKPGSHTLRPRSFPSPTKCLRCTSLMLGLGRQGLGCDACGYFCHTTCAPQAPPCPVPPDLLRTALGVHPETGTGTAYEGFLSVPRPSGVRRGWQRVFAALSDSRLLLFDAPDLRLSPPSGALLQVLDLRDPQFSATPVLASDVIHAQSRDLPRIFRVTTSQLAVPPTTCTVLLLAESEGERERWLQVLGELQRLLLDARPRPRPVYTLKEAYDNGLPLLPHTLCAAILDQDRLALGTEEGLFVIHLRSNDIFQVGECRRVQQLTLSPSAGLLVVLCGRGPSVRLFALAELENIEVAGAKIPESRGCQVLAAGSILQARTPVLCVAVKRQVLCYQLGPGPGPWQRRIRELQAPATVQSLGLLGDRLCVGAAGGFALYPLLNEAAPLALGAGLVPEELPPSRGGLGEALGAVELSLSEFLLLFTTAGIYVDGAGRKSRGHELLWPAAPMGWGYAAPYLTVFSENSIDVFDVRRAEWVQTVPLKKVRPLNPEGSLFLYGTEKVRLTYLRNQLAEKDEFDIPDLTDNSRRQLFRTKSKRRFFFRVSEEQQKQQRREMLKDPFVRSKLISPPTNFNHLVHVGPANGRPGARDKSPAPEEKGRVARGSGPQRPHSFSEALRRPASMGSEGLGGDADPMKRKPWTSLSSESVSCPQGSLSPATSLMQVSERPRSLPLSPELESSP

Compound: CC1(C)[C@H](Nc2c(C(N)=O)cnn3cc(-c4ccccc4)cc23)CC[C@]1(C)N
- Activity [1]: 98%
- Activity [2]: 37%
- Activity [3]: 95%
- Activity [4]: 96%
- Activity [5]: 80%
- Activity [6]: 5%
- Activity [7]: 99%
- Activity [8]: 94%
- Activity [9]: 99%
- Activity [10]: 93%
- Activity [11]: 100%
- Activity [12]: 100%
- Activity [13]: 68%
- Activity [14]: 49%
- Activity [15]: 92%
- Activity [16]: 100%
- Activity [17]: 100%
- Activity [18]: 100%
- Activity [19]: 54%
- Activity [20]: 100%
- Activity [21]: 100%
- Activity [22]: 100%
- Activity [23]: 100%
- Activity [24]: 63%
- Activity [25]: 37%

Compound: COc1ccc(-c2cc3c(N[C@@H]4CC[C@](C)(N)C4(C)C)c(C(N)=O)cnn3c2)cn1
- Activity [1]: 100%
- Activity [2]: 62%
- Activity [3]: 100%
- Activity [4]: 91%
- Activity [5]: 100%
- Activity [6]: 34%
- Activity [7]: 96%
- Activity [8]: 100%
- Activity [9]: 100%
- Activity [10]: 100%
- Activity [11]: 100%
- Activity [12]: 100%
- Activity [13]: 86%
- Activity [14]: 70%
- Activity [15]: 100%
- Activity [16]: 100%
- Activity [17]: 98%
- Activity [18]: 100%
- Activity [19]: 100%
- Activity [20]: 86%
- Activity [21]: 89%
- Activity [22]: 99%
- Activity [23]: 88%
- Activity [24]: 73%
- Activity [25]: 97%
